SMILES strings stand for the structures.

Sequence of CDK12 complexed with Cyclin K (Q9NYV4 whole entry): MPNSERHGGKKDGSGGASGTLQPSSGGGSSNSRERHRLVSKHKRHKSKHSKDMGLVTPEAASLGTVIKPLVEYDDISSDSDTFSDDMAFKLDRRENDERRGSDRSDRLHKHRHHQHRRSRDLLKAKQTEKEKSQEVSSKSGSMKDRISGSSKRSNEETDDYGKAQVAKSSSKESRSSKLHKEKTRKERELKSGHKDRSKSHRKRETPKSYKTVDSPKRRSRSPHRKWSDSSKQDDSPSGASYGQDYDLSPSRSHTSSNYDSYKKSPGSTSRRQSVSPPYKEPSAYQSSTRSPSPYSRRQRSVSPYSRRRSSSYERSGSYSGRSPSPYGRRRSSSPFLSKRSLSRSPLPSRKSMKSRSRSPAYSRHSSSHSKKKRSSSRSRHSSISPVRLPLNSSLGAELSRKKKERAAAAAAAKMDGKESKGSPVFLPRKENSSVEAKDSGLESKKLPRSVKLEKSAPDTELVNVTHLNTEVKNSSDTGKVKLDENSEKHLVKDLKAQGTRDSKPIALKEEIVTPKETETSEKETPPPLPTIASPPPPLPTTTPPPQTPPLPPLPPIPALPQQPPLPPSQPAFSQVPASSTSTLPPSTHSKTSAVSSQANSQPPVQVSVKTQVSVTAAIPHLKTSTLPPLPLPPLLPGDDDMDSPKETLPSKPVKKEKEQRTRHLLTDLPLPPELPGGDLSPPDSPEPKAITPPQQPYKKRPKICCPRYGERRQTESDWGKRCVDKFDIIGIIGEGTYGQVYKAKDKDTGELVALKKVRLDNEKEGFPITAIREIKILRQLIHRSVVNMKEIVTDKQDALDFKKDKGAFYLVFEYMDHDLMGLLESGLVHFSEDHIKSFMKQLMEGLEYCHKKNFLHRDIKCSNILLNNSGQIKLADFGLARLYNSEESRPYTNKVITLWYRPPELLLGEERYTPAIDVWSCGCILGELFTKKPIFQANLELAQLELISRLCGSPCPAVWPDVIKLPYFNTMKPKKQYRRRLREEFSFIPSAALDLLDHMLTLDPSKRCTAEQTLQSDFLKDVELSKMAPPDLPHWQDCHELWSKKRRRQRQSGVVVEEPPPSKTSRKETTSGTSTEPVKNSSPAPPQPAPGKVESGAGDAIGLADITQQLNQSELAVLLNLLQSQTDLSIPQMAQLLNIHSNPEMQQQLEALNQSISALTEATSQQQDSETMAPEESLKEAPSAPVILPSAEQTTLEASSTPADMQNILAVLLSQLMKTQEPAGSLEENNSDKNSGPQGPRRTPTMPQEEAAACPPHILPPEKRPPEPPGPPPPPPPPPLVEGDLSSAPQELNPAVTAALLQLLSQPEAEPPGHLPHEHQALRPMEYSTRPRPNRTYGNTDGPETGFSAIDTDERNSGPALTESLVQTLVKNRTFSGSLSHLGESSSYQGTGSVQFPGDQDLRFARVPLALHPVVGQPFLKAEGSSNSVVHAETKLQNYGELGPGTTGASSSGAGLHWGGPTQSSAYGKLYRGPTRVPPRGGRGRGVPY
Sequence of CDK12 complexed with Cyclin K (O75909 whole entry partner): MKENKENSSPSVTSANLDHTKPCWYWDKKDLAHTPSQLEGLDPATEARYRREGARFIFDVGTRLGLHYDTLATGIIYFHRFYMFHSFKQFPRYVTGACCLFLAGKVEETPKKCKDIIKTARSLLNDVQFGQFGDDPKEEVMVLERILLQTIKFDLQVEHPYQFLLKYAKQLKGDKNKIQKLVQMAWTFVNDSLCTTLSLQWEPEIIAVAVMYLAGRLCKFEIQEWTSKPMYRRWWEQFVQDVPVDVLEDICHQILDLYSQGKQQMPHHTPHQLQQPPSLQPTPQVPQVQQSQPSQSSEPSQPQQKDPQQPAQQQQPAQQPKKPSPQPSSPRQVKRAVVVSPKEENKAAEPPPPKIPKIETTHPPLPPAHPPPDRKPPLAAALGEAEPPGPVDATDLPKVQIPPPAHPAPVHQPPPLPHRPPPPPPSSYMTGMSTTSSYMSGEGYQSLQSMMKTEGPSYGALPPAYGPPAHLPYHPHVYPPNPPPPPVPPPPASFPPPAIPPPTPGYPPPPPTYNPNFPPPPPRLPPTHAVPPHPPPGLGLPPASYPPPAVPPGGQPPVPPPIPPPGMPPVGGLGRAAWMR

The target of the test is CDK12 complexed with Cyclin K (Homo sapiens (Human), UniProt Q9NYV4). Kind of test: CDK enzymatic assay (HTRF, LANCE Ultra kinase assay). Particulars: 60 minutes pre-incubation, 1 mM ATP. The class given is biochemical. As for the experimental part:
The following activity of the CDK enzymes in complex with their respective cyclins we assayed: CDK1 complexed with Cyclin B1; CDK2 complexed with Cyclin E1; CDK4 complexed with Cyclin D1; CDK6 complexed with Cyclin D1; CDK6 complexed with Cyclin D3; CDK9 complexed with Cyclin T1; CDK7 complexed with Cyclin H/MAT1; CDK2 complexed with Cyclin A2; CDK5 complexed with p35; CDK12 complexed with Cyclin K; CDK13 complexed with Cyclin K. These in vitro enzyme activity are assayed using homogeneous time-resolved energy transfer (HTRF), which measures phosphorylation of a peptide substrate. The LANCE® Ultra kinase assay (PerkinElmer) uses a ULight™-labeled EIF4E-binding protein 1 (THR37/46) peptide (DYSTTPGGTLFSTTPGTRI) (SEQ ID NO: 1) substrate and a Europium-labeled anti-phospho-4E-BP1 antibody (CDK2, CDK1, CDK4, CDK6, CDK9, CDK12, CDK13) or ULight™-labeled Myelin Basic Protein peptide (VTPRTPPP) (SEQ ID NO: 2) substrate and a Europium-labeled anti-phospho-MBP antibody (CDK7). Each CDK enzyme activity assays utilized human CDK co-expressed as N-terminal GST-tagged protein with its full length cyclin partner using a baculovirus expression system.
Enzyme was pre-incubated with compounds for 30 minutes (CDK1,2,4,6,9) or 60 minutes (CDK7, CDK12, CDK13) prior to addition of ATP and Ulight-peptide (1 mM and 50 nM final, respectively), in assay buffer containing 50 mM HEPES pH 7.5, 1 mM EGTA, 10 mM MgCl2, 2 mM DTT, 0.05 mg/mL BSA, and 0.01% Tween 20.
The reaction was then incubated for 60-90 minutes at room temperature. The reactions were stopped by the addition of EDTA and Europium labeled antibody, for a final concentration of 15 mM and 1.0-1.5 nM, respectively. HTRF signals were read after 15-120 minutes. A ratio of fluorescence transferred to the labeled substrate (665 nm) relative to fluorescence of the Europium donor (620 nm) represents the extent of phosphorylation. Ratios for treated wells were normalized to DMSO only (100% activity) and no enzyme (0% activity) controls. Normalized data was analyzed using a three or four parameter dose response curve to determine IC50 for each compound and are shown in Table A. Control reference inhibitors were included on each plate.
Background: Time-resolved FRET reads energy transfer from a long-lived donor to a nearby acceptor.
The term IC50 denotes the concentration at which inhibition is half-maximal. A low value points to inhibition by little substance. `N#Cc1cnc2c(c1)ncn2[C@H]1CCC[C@@H](Nc2ncc(C#N)c(-c3cnn(CC(F)F)c3)n2)C1` [9/9A, 3-((1S,3R)-3-((5-Cyano-4-(1-(2,2-difluoroethyl)-1H-pyrazol-4-yl)pyrimidin-2-yl)amino)cyclohexyl)-3H-imidazo[4,5-b]pyridine-6-carbonitrile] showed an IC50 below 50 nM.

As to `N#Cc1cnc(N[C@@H]2CCC[C@H](n3cnc4cccc(C#N)c43)C2)nc1-c1cnn(CC(F)F)c1` [13/13A, 1-((1S,3R)-3-((5-Cyano-4-(1-(2,2-difluoroethyl)-1H-pyrazol-4-yl)pyrimidin-2-yl)amino)cyclohexyl)-1H-benzo[d]imidazole-7-carbonitrile], the IC50 was below 50 nM. Next, `Cc1c(-c2nc(N[C@@H]3CCC[C@H](n4cnc5cc(C#N)cnc54)C3)ncc2C#N)nnn1C` [28/28A, 3-((1S,3R)-3-((5-Cyano-4-(1,5-dimethyl-1H-1,2,3-triazol-4-yl)pyrimidin-2-yl)amino)cyclohexyl)-3H-imidazo[4,5-b]pyridine-6-carbonitrile]: below 50 nM. In turn, `N#Cc1cnc2c(c1)ncn2[C@H]1CCC[C@@H](Nc2ncc(C(F)(F)F)c(-c3cnn(CC(F)F)c3)n2)C1` [Example 1, 3-((1S,3R)-3-((4-(1-(2,2-Difluoroethyl)-1H-pyrazol-4-yl)-5-(trifluoromethyl)pyrimidin-2-yl)amino)cyclohexyl)-3H-imidazo[4,5-b]pyridine-6-carbonitrile] gave a half-inhibitory concentration (IC50) below 50 nM. Next, `N#Cc1cnc2c(c1)ncn2[C@H]1CC[C@@H](Nc2ncc(C(F)(F)F)c(-c3cnn(CC(F)F)c3)n2)C1` [Example 2, 3-((1S,3R)-3-((4-(1-(2,2-Difluoroethyl)-1H-pyrazol-4-yl)-5-(trifluoromethyl)pyrimidin-2-yl)amino)cyclopentyl)-3H-imidazo[4,5-b]pyridine-6-carbonitrile]: above 500 nM; `N#Cc1cnc(N[C@@H]2CCC[C@H](n3cnc4ccccc43)C2)nc1-c1cnn(CC(F)F)c1` [Example 3, 2-(((1R,3S)-3-(1H-Benzo[d]imidazol-1-yl)cyclohexyl)amino)-4-(1-(2,2-difluoroethyl)-1H-pyrazol-4-yl)pyrimidine-5-carbonitrile]: below 50 nM. The same measure for `FC(F)Cn1cc(-c2nc(N[C@@H]3CCC[C@H](n4cnc5cc(C(F)(F)F)cnc54)C3)ncc2C(F)(F)F)cn1` [Example 4, 4-(1-(2,2-Difluoroethyl)-1H-pyrazol-4-yl)-5-(trifluoromethyl)-N-((1R,3S)-3-(6-(trifluoromethyl)-3H-imidazo[4,5-b]pyridin-3-yl)cyclohexyl)pyrimidin-2-amine]: below 50 nM; for `COC(=O)c1ccc2ncn([C@H]3CCC[C@@H](Nc4ncc(C(F)(F)F)c(-c5cnn(CC(F)F)c5)n4)C3)c2n1` [Example 5, Methyl 3-((1S,3R)-3-((4-(1-(2,2-difluoroethyl)-1H-pyrazol-4-yl)-5-(trifluoromethyl)pyrimidin-2-yl)amino)cyclohexyl)-3H-imidazo[4,5-b]pyridine-5-carboxylate]: below 50 nM. Next, `COc1ccc2ncn([C@H]3CCC[C@@H](Nc4ncc(C(F)(F)F)c(-c5cnn(CC(F)F)c5)n4)C3)c2n1` [Example 6, 4-(1-(2,2-Difluoroethyl)-1H-pyrazol-4-yl)-N-((1R,3S)-3-(5-methoxy-3H-imidazo[4,5-b]pyridin-3-yl)cyclohexyl)-5-(trifluoromethyl)pyrimidin-2-amine]: below 50 nM. In turn, `FC(F)Cn1cc(-c2nc(N[C@@H]3CCC[C@H](n4cnc5cnccc54)C3)ncc2C(F)(F)F)cn1` [Example 7, N-((1R,3S)-3-(1H-Imidazo[4,5-c]pyridin-1-yl)cyclohexyl)-4-(1-(2,2-difluoroethyl)-1H-pyrazol-4-yl)-5-(trifluoromethyl)pyrimidin-2-amine] gave an IC50 below 50 nM. The same measure for `Cc1ccnc2c1ncn2[C@H]1CCC[C@@H](Nc2ncc(C#N)c(-c3cnn(CC(F)F)c3)n2)C1` [Example 8, 4-(1-(2,2-Difluoroethyl)-1H-pyrazol-4-yl)-2-(((1R,3S)-3-(7-methyl-3H-imidazo[4,5-b]pyridin-3-yl)cyclohexyl)amino)pyrimidine-5-carbonitrile]: below 50 nM; for `N#Cc1cnc(N[C@@H]2CCC[C@H](n3cnc4cccnc43)C2)nc1-c1cnn(CC(F)F)c1` [Example 11, 2-(((1R,3S)-3-(3H-Imidazo[4,5-b]pyridin-3-yl)cyclohexyl)amino)-4-(1-(2,2-difluoroethyl)-1H-pyrazol-4-yl)pyrimidine-5-carbonitrile]: below 50 nM; for `FC(F)Cn1cc(-c2nc(N[C@@H]3CCC[C@H](n4cnc5cccnc54)C3)ncc2C(F)(F)F)cn1` [Example 12, N-((1R,3S)-3-(3H-Imidazo[4,5-b]pyridin-3-yl)cyclohexyl)-4-(1-(2,2-difluoroethyl)-1H-pyrazol-4-yl)-5-(trifluoromethyl)pyrimidin-2-amine]: below 50 nM. For `N#Cc1cnc2c(c1)ncn2[C@H]1CCC[C@@H](Nc2ncc(Cl)c(-c3cnn(CC(F)F)c3)n2)C1` [Example 14, 3-((1S,3R)-3-((5-Chloro-4-(1-(2,2-difluoroethyl)-1H-pyrazol-4-yl)pyrimidin-2-yl)amino)cyclohexyl)-3H-imidazo[4,5-b]pyridine-6-carbonitrile], the IC50 was below 50 nM. The same measure for `N#Cc1cnc2c(ccn2[C@H]2CCC[C@@H](Nc3ncc(C(F)(F)F)c(-c4cnn(CC(F)F)c4)n3)C2)c1` [Example 15, 1-((1S,3R)-3-((4-(1-(2,2-Difluoroethyl)-1H-pyrazol-4-yl)-5-(trifluoromethyl)pyrimidin-2-yl)amino)cyclohexyl)-1H-pyrrolo[2,3-b]pyridine-5-carbonitrile]: below 50 nM; for `N#Cc1ccc2c(ccn2[C@H]2CCC[C@@H](Nc3ncc(C(F)(F)F)c(-c4cnn(CC(F)F)c4)n3)C2)c1` [Example 16, 1-((1S,3R)-3-((4-(1-(2,2-Difluoroethyl)-1H-pyrazol-4-yl)-5-(trifluoromethyl)pyrimidin-2-yl)amino)cyclohexyl)-1H-indole-5-carbonitrile]: 50 to 500 nM; for `Cc1c(-c2nc(N[C@@H]3CCC[C@H](n4cnc5cccnc54)C3)ncc2C#N)cnn1C` [Example 17, 2-(((1R,3S)-3-(3H-Imidazo[4,5-b]pyridin-3-yl)cyclohexyl)amino)-4-(1,5-dimethyl-1H-pyrazol-4-yl)pyrimidine-5-carbonitrile]: 50 to 500 nM.

Turning to `N#Cc1cnc(N[C@@H]2CCC[C@H](n3cnc4cccnc43)C2)nc1-c1cnn2c1CCC2` [Example 18, 2-(((1R,3S)-3-(3H-Imidazo[4,5-b]pyridin-3-yl)cyclohexyl)amino)-4-(5,6-dihydro-4H-pyrrolo[1,2-b]pyrazol-3-yl)pyrimidine-5-carbonitrile], the IC50 was below 50 nM. For `Cc1nn(C)cc1-c1nc(N[C@@H]2CCC[C@H](n3cnc4cccnc43)C2)ncc1C#N` [Example 19, 2-(((1R,3S)-3-(3H-Imidazo[4,5-b]pyridin-3-yl)cyclohexyl)amino)-4-(1,3-dimethyl-1H-pyrazol-4-yl)pyrimidine-5-carbonitrile], the IC50 was above 500 nM.

The compound `Cn1ncc(-c2nc(N[C@@H]3CCC[C@H](n4cnc5cccnc54)C3)ncc2C#N)c1C#N` [Example 20, 2-(((1R,3S)-3-(3H-Imidazo[4,5-b]pyridin-3-yl)cyclohexyl)amino)-4-(5-cyano-1-methyl-1H-pyrazol-4-yl)pyrimidine-5-carbonitrile] came in with an IC50 of 50 to 500 nM. The compound `N#Cc1cnc(N[C@@H]2CCC[C@H](n3cnc4cccnc43)C2)nc1-c1c[nH]nc1C1CC1` [Example 21, 2-(((1R,3S)-3-(3H-Imidazo[4,5-b]pyridin-3-yl)cyclohexyl)amino)-4-(3-cyclopropyl-1H-pyrazol-4-yl)pyrimidine-5-carbonitrile] showed an IC50 below 50 nM. Next, `Cn1nccc1-c1nc(N[C@@H]2CCC[C@H](n3cnc4cccnc43)C2)ncc1C#N` [Example 22, 2-(((1R,3S)-3-(3H-Imidazo[4,5-b]pyridin-3-yl)cyclohexyl)amino)-4-(1-methyl-1H-pyrazol-5-yl)pyrimidine-5-carbonitrile]: above 500 nM.

In turn, `Cn1ncc(-c2nc(N[C@@H]3CCC[C@H](n4cnc5cccnc54)C3)ncc2C#N)c1C(F)(F)F` [Example 23, 2-(((1R,3S)-3-(3H-Imidazo[4,5-b]pyridin-3-yl)cyclohexyl)amino)-4-(1-methyl-5-(trifluoromethyl)-1H-pyrazol-4-yl)pyrimidine-5-carbonitrile] registered an IC50 of 50 to 500 nM. The same measure for `CCn1cc(-c2nc(N[C@@H]3CCC[C@H](n4cnc5cccnc54)C3)ncc2C#N)cn1` [Example 24, 2-(((1R,3S)-3-(3H-Imidazo[4,5-b]pyridin-3-yl)cyclohexyl)amino)-4-(1-ethyl-1H-pyrazol-4-yl)pyrimidine-5-carbonitrile]: below 50 nM.
